Source: US20170198011A1, “COMPOSITION FOR TREATING SEPSIS OR SEPTIC SHOCK COMPRISING THE PEPTIDE ORIGINATED FROM THE SMAD6” (Medpacto, Inc., priority 2011, published 2017)
Where no end group is shown, it is not given here.

How the values were obtained:
[1] = test system: TGF-β1 signaling (Smad binding element); assay: SBE-Luc reporter luciferase assay in CMT-93 cells; assay type: cell-based; settings: TGF-β1 5 ng/ml 2 hrs
Excerpt: FIG. 2A is a graph showing results of the luciferase assay conducted with CMT-93 cells after transfection with SBE-Luc reporter plasmid plus an empty vector, a plasmid carrying Myc-Smad6 (400-441), or a plasmid carrying full-length Smad6,
FIG. 3D is a graph showing TGF-β-induced luciferase activity in CMT-93 cells transformed with an SBE-Luc reporter plasmid plus an empty vector or a Myc-Smad6 (422-441) plasmid, and
(§1) To examine whether the small region of Smad6 MH2 domain specifically suppresses LPS-induced NF-κB signaling, a 5×NF-κB-Luc reporter plasmid and an SBE (Smad binding element)-Luc reporter plasmid were separately transfected, together with a plasmid expressing a peptide from amino acid 400 to 441 of Smad6, into a CMT-93 epithelial cell line with the aid of Effectene (Qiagen). Following treatment with LPS (10 ng/ml) or TGF-β1 (5 ng/ml) for 2 hrs, the transfected cells were examined for luciferase activity. […] All experiments were independently repeated three times, while a full-length Smad6 plasmid was used as a control.

IκBα = assay: Immunoblot of LPS-induced IκBα degradation in stably transformed CMT-93 cells; assay type: cell-based; settings: CMT-93 cells stably expressing the region
Excerpt: To confirm the specific inhibitory activity of the Smad6 β-sheet small region against NF-κB signaling, the epithelial cell line CMT-93, which is susceptible to both TGF-β1 and LPS, was transformed to stably express the Smad6 β-sheet region.

Pellino-1N domain = target: T1, Pellino-1N domain (Homo sapiens, UniProt Q96FA3); assay: Co-immunoprecipitation of Smad6 MH2 mutants with HA-tagged Pellino-1N in HEK293 cells; assay type: binding; settings: truncated mutants of Smad6 MH2 domain
T1 construct: expressed in transfected cells; host or cells: HEK293
T1 sequence (Q96FA3 1-140 limits assumed): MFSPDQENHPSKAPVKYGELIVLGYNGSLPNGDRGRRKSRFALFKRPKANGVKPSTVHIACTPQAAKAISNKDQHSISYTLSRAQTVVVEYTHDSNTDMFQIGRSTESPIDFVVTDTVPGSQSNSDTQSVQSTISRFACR
Excerpt: To examine a minimum region of Smad6 that binds certainly to Pellino-1, which specifically interrupts NF-κB (κB nuclear factor kappa B) signaling, mutants were constructed by consecutively truncating the Smad6 MH2 domain, and analyzed using a co-immunoprecipitation assay.
[…] Plasmids carrying genes for different regions of Smad6 (Myc-Smad6 MH2, Myc-Smad6 346F, Myc-Smad6 371F, Myc-Smad6 385F, Myc-Smad6 464R, Myc-Smad6 441R, Myc-Smad6 410R, Myc-Smad6 385-441, Myc-Smad6 385-427, Myc-Smad6 385-418, Myc-Smad6 385-410, Myc-Smad6 400-441, Myc-Smad6 400-427, Myc-Smad6 400-418, Myc-Smad6 400-410, Myc-Smad6 422-441) were constructed by amplifying a full-length Smad6 cDNA by PCR and subcloning it into the BamHI/XhoI site of the pSC3+MT 6×Myc vector. Myc-Smad6 R429A, Myc-Smad6 P432A, Myc-Smad6 P433G, Myc-Smad6 Y435F, and Myc-Smad6 I437D were created using a QuikChange mutagenesis kit (Stratagene).
A co-immunoprecipitation assay was carried out as follows. […]

NF-κB = assay: 5xNF-κB-Luc reporter luciferase assay in CMT-93 cells; assay type: cell-based; settings: LPS 10 ng/ml 2 hrs
Excerpt: FIG. 2B is a graph showing results of the luciferase assay conducted with CMT-93 cells after transfection with a 5×NF-κB-Luc reporter plasmid plus an empty vector, a plasmid carrying Myc-Smad6 (400-441), or a plasmid carrying full-length Smad6, and
FIG. 3E is a graph showing TGF-β-induced luciferase activity in CMT-93 cells transformed with a 5×NF-κB-Luc reporter plasmid plus an empty vector or a Myc-Smad6 (422-441) plasmid;
as §1

IRAK1, TRAF6, MyD88 = assay: Co-immunoprecipitation of Smad6 (422-441) with other TLR4 signaling proteins in HEK293 cells; assay type: binding; settings: Flag-IRAK1, Flag-TRAF6, Flag-MyD88
Procedure: (§2) A co-immunoprecipitation assay was carried out as follows. For use as antibodies in co-immunoprecipitation, mouse anti-HA (F-7), mouse anti-c-Myc (9E10), rabbit anti-IκBα (C-21), mouse anti-IRAK1 (F-4), and mouse anti-TRAF6 (D-10) were purchased from Santa Cruz Biotechnology (USA), the antibodies rabbit anti-Pellino-1 and rabbit anti-IRAK4 from Imgenex, the antibodies rabbit anti-Smad6, rabbit anti-MyD88 (D80F5), rabbit anti-IKKα, rabbit anti-phospho-IKKα/β, rabbit anti-RIP1 (D94C12), rabbit anti-IKKi (anti-IKKE; D61F9), rabbit anti-TBK1 (D1B4), rabbit anti-GRK2 from Cell Signaling, and the antibody anti-β-actin from Sigma. Cells were lysed in a lysis buffer (PBS containing 0.5% Triton X-100, 20 mM HEPES (pH 7.4), 150 mM NaCl, 12.5 mM β-glycerol phosphate, 1.5 mM MgCl2, 10 mM NaF, 2 mM DTT, 1 mM Na3O4V, 2 mM EGTA, 1 mM PMSF and protease inhibitor mixture), and harvested by centrifuging 13,000 rpm for 10 min. For immunoprecipitation, the cell lysate were incubated at 4° C. for 12 hrs with protein-A agarose beads and the above-mentioned antibodies. Afterwards, the beads were washed three times with a lysis buffer, and treated with a 2× sample buffer to separate the co-immunoprecipitates therefrom. The co-immunoprecipitates were boiled, followed by SDS-PAGE. […]

Pellino-1 = target: T2, Pellino-1 (Homo sapiens, UniProt Q96FA3); assay: Co-immunoprecipitation of Smad6 truncated mutants with HA-tagged full length Pellino-1 in HEK293 cells; assay type: binding
T2 construct: plus an HA-tagged full length Pellino-1 plasmid; expressed in transfected cells; host or cells: HEK293
T2 sequence (Q96FA3 1-418): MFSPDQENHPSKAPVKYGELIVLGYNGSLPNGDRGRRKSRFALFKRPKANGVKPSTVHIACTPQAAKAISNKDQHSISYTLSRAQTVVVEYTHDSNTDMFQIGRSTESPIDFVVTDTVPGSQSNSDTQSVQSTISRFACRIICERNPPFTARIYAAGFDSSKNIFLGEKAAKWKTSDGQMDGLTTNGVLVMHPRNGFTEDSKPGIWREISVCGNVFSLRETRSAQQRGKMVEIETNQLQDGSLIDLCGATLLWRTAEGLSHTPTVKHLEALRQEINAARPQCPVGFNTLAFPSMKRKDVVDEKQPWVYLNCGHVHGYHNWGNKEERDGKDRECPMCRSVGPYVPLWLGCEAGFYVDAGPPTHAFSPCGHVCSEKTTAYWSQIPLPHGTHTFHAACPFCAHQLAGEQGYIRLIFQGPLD
Procedure: as §2

Myc-Smad6 400-441: plasmid-expressed Myc-tagged peptide region from amino acid 400 to 441 of the Smad6 MH2 domain (VWAYNRGEHPIFVNSPTLDAPGGRALVVRKVPPGYSIKVFDF; also: Myc tag, plasmid-expressed; UniProt O43541 400-441, looked up, fragment)
TGF-β1-mediated reporter activity [1]: did not suppress | LPS-induced IκBα degradation detected (IκBα): not | interaction with the Pellino-1N domain (Pellino-1N domain): interact | NF-κB-mediated reporter activity (NF-κB): selectively suppressed

Myc-Smad6 422-441: plasmid-expressed Myc-tagged minimum region, amino acid 422 to 441 of Smad6 (GGRALVVRKVPPGYSIKVFD; also: Myc tag, plasmid-expressed)
TGF-β1-mediated reporter activity [1]: did not suppressed | binding to other proteins involved in the TLR4 signaling pathway (IRAK1, TRAF6, MyD88): not to other proteins involved in the TLR4 signaling pathway | binding to Pellino-1 (Pellino-1): sufficient and minimally required | NF-κB-mediated reporter activity (NF-κB): specifically suppressing

B1: full-length Smad6: full-length Smad6 plasmid used as a control (protein, UniProt O43541 1-496, looked up)
chain: MFRSKRSGLVRRLWRSRVVPDREEGGSGGGGGGDEDGSLGSRAEPAPRAREGGGCGRSEVRPVAPRRPRDAVGQRGAQGAGRRRRAGGPPRPMSEPGAGAGSSLLDVAEPGGPGWLPESDCETVTCCLFSERDAAGAPRDASDPLAGAALEPAGGGRSREARSRLLLLEQELKTVTYSLLKRLKERSLDTLLEAVESRGGVPGGCVLVPRADLRLGGQPAPPQLLLGRLFRWPDLQHAVELKPLCGCHSFAAAADGPTVCCNPYHFSRLCGPESPPPPYSRLSPRDEYKPLDLSDSTLSYTETEATNSLITAPGEFSDASMSPDATKPSHWCSVAYWEHRTRVGRLYAVYDQAVSIFYDLPQGSGFCLGQLNLEQRSESVRRTRSKIGFGILLSKEPDGVWAYNRGEHPIFVNSPTLDAPGGRALVVRKVPPGYSIKVFDFERSGLQHAPEPDAADGPYDPNSVRISFAKGWGPCYSRQFITSCPCWLEILLNNPR
modifications: full-length
notes: full-length Smad6 plasmid used as a control
TGF-β1-mediated reporter activity [1]: suppressed | NF-κB-mediated reporter activity (NF-κB): suppressed
